Reference: patent US12433865B2, “Compositions comprising PGI2-receptor agonists and processes for the preparation thereof” (Arena Pharmaceuticals, Inc., priority 2018, dated 2025)

Assay: Release (dissolution) profile of capsules, USP Apparatus 2 (paddle)
Format: physicochemical
Conditions: for Release rate (percentage of Compound 1 released over time): 0.04 mg capsule, Poloxamer 188:food grade GMS 50:50, T = 0 (pre-curing)
From the text: USP Apparatus 2 (Paddle Apparatus) is described, for example, in the United States Pharmacopeial Convention, Feb. 1, 2012, Chapter <711> (“Dissolution”), incorporated by reference herein in its entirety. See http://www.usp.org/sites/default/files/usp_pdf/EN/USPNF/revisions/m99470-gc_711.pdf. The assembly from Apparatus 1 is used, except that a paddle formed from a blade and a shaft is used as the stirring element. The shaft is positioned so that its axis is not more than 2 mm from the vertical axis of the vessel at any point and rotates smoothly without significant wobble that could affect the results. The vertical center line of the blade passes through the axis of the shaft so that the bottom of the blade is flush with the bottom of the shaft. A distance of 25±2 mm between the bottom of the blade and the inside bottom of the vessel is maintained during the test. The metallic or suitably inert, rigid blade and shaft comprise a single entity. A suitable two-part detachable design may be used provided the assembly remains firmly engaged during the test. The paddle blade and shaft may be coated with a suitable coating so as to make them inert. The dosage unit is allowed to sink to the bottom of the vessel before rotation of the blade is started. A small, loose piece of nonreactive material, such as not more than a few turns of wire helix, may be attached to dosage units that would otherwise float. Other validated sinker devices may be used.
Unless otherwise specified, the release profiles for capsules were measured using USP Apparatus 2 (paddle).
All release profiles disclosed in Tables 3c-3p were measured with USP Apparatus 2 (paddle) at 50 rpm in 500 mL of aqueous sodium phosphate at a concentration of 0.05 M (pH=6.8). The values in a given table relate to capsules obtained from the same batch. Values shown represent mean values over a number of dissolution tests (“n” in each table) in each case.

O=C(O)COC[C@H]1CC[C@H](COC(=O)N(c2ccccc2)c2ccc(Cl)cc2)CC1 [Compound 1, 2-(((1r,4r)-4-(((4-chlorophenyl)(phenyl)carbamoyloxy)methyl)cyclohexyl)methoxy)acetic acid]
Release rate (percentage of Compound 1 released over time) (480 min): 72.7% | Release rate (percentage of Compound 1 released over time) (600 min): 79.8% | Release rate (percentage of Compound 1 released over time) (720 min): 83.1% | Release rate (percentage of Compound 1 released over time) (735 min): 84.6% | change of release rate after storage (0.04 mg of Compound 1 in Gelucire 50/13, storage at 40° C. and 75% RH for two weeks (FIG. 5)): rapid increase | release rate relative to immediate-release composition (0.5 mg Compound 1, Poloxamer 188:food grade GMS 70:30, 50:50 and 30:70 (FIGS. 8-10)): slower rate | release rate after storage (0.5 mg Compound 1, Poloxamer 188:food grade GMS 70:30, 50:50 and 30:70, storage at 40° C. and 75% RH for about one month (FIGS. 8-10)): substantially the same | mean value (n = 6) of % of Compound 1 released (Table 3c: size 4 capsule, 0.03 mg Compound 1, Poloxamer 188:food grade GMS 70:30, 20 min): 14.8% | mean value (n = 6) of % of Compound 1 released (Table 3c: size 4 capsule, 0.03 mg Compound 1, Poloxamer 188:food grade GMS 70:30, 30 min): 36.1% | mean value (n = 6) of % of Compound 1 released (Table 3c: size 4 capsule, 0.03 mg Compound 1, Poloxamer 188:food grade GMS 70:30, 45 min): 65.4% | mean value (n = 6) of % of Compound 1 released (Table 3c: size 4 capsule, 0.03 mg Compound 1, Poloxamer 188:food grade GMS 70:30, 60 min): 83.8% | mean value (n = 6) of % of Compound 1 released (Table 3c: size 4 capsule, 0.03 mg Compound 1, Poloxamer 188:food grade GMS 70:30, 90 min): 95.5% | mean value (n = 6) of % of Compound 1 released (Table 3c: size 4 capsule, 0.03 mg Compound 1, Poloxamer 188:food grade GMS 70:30, 120 min): 98.4% | mean value (n = 4) of % of Compound 1 released (Table 3e: size 4 capsule, 0.5 mg Compound 1, Poloxamer 188:food grade GMS 70:30, 30 min): 17.7% | mean value (n = 4) of % of Compound 1 released (Table 3e: size 4 capsule, 0.5 mg Compound 1, Poloxamer 188:food grade GMS 70:30, 60 min): 56.9% | mean value (n = 4) of % of Compound 1 released (Table 3e: size 4 capsule, 0.5 mg Compound 1, Poloxamer 188:food grade GMS 70:30, 120 min): 95.1% | mean value (n = 4) of % of Compound 1 released (Table 3f: size 4 capsule, 0.5 mg Compound 1, Poloxamer 188:food grade GMS 70:30, 30 min): 19.3% | mean value (n = 4) of % of Compound 1 released (Table 3f: size 4 capsule, 0.5 mg Compound 1, Poloxamer 188:food grade GMS 70:30, 60 min): 61.9% | mean value (n = 4) of % of Compound 1 released (Table 3f: size 4 capsule, 0.5 mg Compound 1, Poloxamer 188:food grade GMS 70:30, 120 min): 98.1% | mean value (n = 4) of % of Compound 1 released (Table 3g-1: Storage Time = 0, size 4 capsule, 0.5 mg Compound 1, Poloxamer 188:food grade GMS 70:30, 30 min): 33.0% | mean value (n = 4) of % of Compound 1 released (Table 3g-1: Storage Time = 0, size 4 capsule, 0.5 mg Compound 1, Poloxamer 188:food grade GMS 70:30, 45 min): 64.2% | mean value (n = 4) of % of Compound 1 released (Table 3g-1: Storage Time = 0, size 4 capsule, 0.5 mg Compound 1, Poloxamer 188:food grade GMS 70:30, 60 min): 86.0% | mean value (n = 4) of % of Compound 1 released (Table 3g-2 (Storage Time = 2 weeks), first line, size 4 capsule, 0.5 mg Compound 1, Poloxamer 188:food grade GMS 70:30, 30 min): 33.0% | mean value (n = 4) of % of Compound 1 released (Table 3g-2 (Storage Time = 2 weeks), first line, size 4 capsule, 0.5 mg Compound 1, Poloxamer 188:food grade GMS 70:30, 45 min): 64.2% | mean value (n = 4) of % of Compound 1 released (Table 3g-2 (Storage Time = 2 weeks), first line, size 4 capsule, 0.5 mg Compound 1, Poloxamer 188:food grade GMS 70:30, 60 min): 86.0% | mean value (n = 4) of % of Compound 1 released (Table 3g-2 (Storage Time = 2 weeks), second line, size 4 capsule, 0.5 mg Compound 1, Poloxamer 188:food grade GMS 70:30, 30 min): 34.8% | mean value (n = 4) of % of Compound 1 released (Table 3g-2 (Storage Time = 2 weeks), second line, size 4 capsule, 0.5 mg Compound 1, Poloxamer 188:food grade GMS 70:30, 45 min): 67.9% | mean value (n = 4) of % of Compound 1 released (Table 3g-2 (Storage Time = 2 weeks), second line, size 4 capsule, 0.5 mg Compound 1, Poloxamer 188:food grade GMS 70:30, 60 min): 89.4% | mean value (n = 4) of % of Compound 1 released (Table 3i: size 4 capsule, 0.5 mg Compound 1, Poloxamer 188:food grade GMS 50:50, 30 min): 7.5% | mean value (n = 4) of % of Compound 1 released (Table 3i: size 4 capsule, 0.5 mg Compound 1, Poloxamer 188:food grade GMS 50:50, 60 min): 21.1% | mean value (n = 4) of % of Compound 1 released (Table 3i: size 4 capsule, 0.5 mg Compound 1, Poloxamer 188:food grade GMS 50:50, 120 min): 41.1% | mean value (n = 4) of % of Compound 1 released (Table 3i: size 4 capsule, 0.5 mg Compound 1, Poloxamer 188:food grade GMS 50:50, 180 min): 58.9% | mean value (n = 4) of % of Compound 1 released (Table 3i: size 4 capsule, 0.5 mg Compound 1, Poloxamer 188:food grade GMS 50:50, 240 min): 75.3% | mean value (n = 4) of % of Compound 1 released (Table 3i: size 4 capsule, 0.5 mg Compound 1, Poloxamer 188:food grade GMS 50:50, 360 min): 94.3% | mean value (n = 4) of % of Compound 1 released (Table 3i: size 4 capsule, 0.5 mg Compound 1, Poloxamer 188:food grade GMS 50:50, 480 min): 100.0% | mean value (n = 4) of % of Compound 1 released (Table 3j: size 4 capsule, 0.5 mg Compound 1, Poloxamer 188:food grade GMS 50:50, 30 min): 7.8% | mean value (n = 4) of % of Compound 1 released (Table 3j: size 4 capsule, 0.5 mg Compound 1, Poloxamer 188:food grade GMS 50:50, 60 min): 19.5% | mean value (n = 4) of % of Compound 1 released (Table 3j: size 4 capsule, 0.5 mg Compound 1, Poloxamer 188:food grade GMS 50:50, 120 min): 38.6% | mean value (n = 4) of % of Compound 1 released (Table 3j: size 4 capsule, 0.5 mg Compound 1, Poloxamer 188:food grade GMS 50:50, 180 min): 56.8% | mean value (n = 4) of % of Compound 1 released (Table 3j: size 4 capsule, 0.5 mg Compound 1, Poloxamer 188:food grade GMS 50:50, 240 min): 72.9% | mean value (n = 4) of % of Compound 1 released (Table 3j: size 4 capsule, 0.5 mg Compound 1, Poloxamer 188:food grade GMS 50:50, 360 min): 90.7% | mean value (n = 4) of % of Compound 1 released (Table 3j: size 4 capsule, 0.5 mg Compound 1, Poloxamer 188:food grade GMS 50:50, 480 min): 97.4% | mean value (n = 6) of % of Compound 1 released (Table 3k: size 4 capsule, 0.03 mg Compound 1, Poloxamer 188:food grade GMS 50:50, 30 min): 8.5% | mean value (n = 6) of % of Compound 1 released (Table 3k: size 4 capsule, 0.03 mg Compound 1, Poloxamer 188:food grade GMS 50:50, 60 min): 18.0% | mean value (n = 6) of % of Compound 1 released (Table 3k: size 4 capsule, 0.03 mg Compound 1, Poloxamer 188:food grade GMS 50:50, 120 min): 39.3% | mean value (n = 6) of % of Compound 1 released (Table 3k: size 4 capsule, 0.03 mg Compound 1, Poloxamer 188:food grade GMS 50:50, 180 min): 58.6% | mean value (n = 6) of % of Compound 1 released (Table 3k: size 4 capsule, 0.03 mg Compound 1, Poloxamer 188:food grade GMS 50:50, 240 min): 75.2%
